Source: article PMC12005787, “Synthetic Lethality of SHP2 and XIAP Suppresses Proliferation and Metastasis in KRAS‐mutant Nonsmall Cell Lung Cancer” (Advanced Science, 2025)

Assays:
[1] = target: T1, HePTP (Homo sapiens, UniProt P35236); test: PTPs activity assay (DiFMUP); format: biochemical
T1 construct: His; made in house; host or cells: E. coli
T1 sequence (P35236 1-360): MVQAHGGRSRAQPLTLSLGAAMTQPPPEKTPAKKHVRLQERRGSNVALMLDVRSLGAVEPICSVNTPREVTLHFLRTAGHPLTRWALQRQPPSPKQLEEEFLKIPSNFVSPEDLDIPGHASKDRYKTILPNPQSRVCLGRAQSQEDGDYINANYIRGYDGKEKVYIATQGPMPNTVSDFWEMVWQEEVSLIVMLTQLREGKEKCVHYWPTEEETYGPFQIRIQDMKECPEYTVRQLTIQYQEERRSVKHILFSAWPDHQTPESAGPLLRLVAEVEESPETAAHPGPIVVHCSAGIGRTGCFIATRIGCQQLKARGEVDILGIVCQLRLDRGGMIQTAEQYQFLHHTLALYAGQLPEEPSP
Method: (§1) Catalytic activity screening methods for PTPs using candidate compounds were performed as previously described.^[ [77] ^] In brief, soluble fusion PTP proteins, His‐ΔSHP2, encompassing the peptide from amino acids 205–593 retaining PTP activity, His‐ΔSHP2^K325A, His‐ΔSHP1, encompassing the peptide from amino acids 202–595 retaining PTP activity, His‐PTP1B, His‐HePTP, His‐VHR, and His‐TCPTP were cloned, expressed, and purified in E. coli. After determining protein concentration using bicinchoninic acid (BCA) assay kit, 1 µg fusion protein, 10 µM library compound were added in 100 µL reaction mixture (55 mM 4‐(2‐hydroxyethyl)‐1‐piperazineethanesulfonic acid [HEPES], 100 mM sodium chloride [NaCl], 0.5 mM ethylenediaminetetraacetic acid [EDTA], 1 mM dithiothreitol [DTT], 0.01% Triton X‐100, 0.002% bovine serum albumin [BSA], and 0.1% dimethyl sulfoxide [DMSO]) and incubated at 37 °C for 30 min in the dark, with Na3VO4 as positive control. The detection substrate DiFMUP (50 µM) was promptly added to each reaction and functioned at 37 °C for 30 min in the dark. The fluorescence intensity was then measured using Multimode Plate Reader (λa = 358 nm, λe = 455 nm, PerkinElmer, USA).

[2] = target: T2, PTP1B (Homo sapiens, UniProt P18031); test: PTPs activity assay (DiFMUP); format: biochemical; conditions: read-out: IC50 of PTPs PTP1B
T2 construct: His; made in house; host or cells: E. coli
T2 sequence (P18031 1-435): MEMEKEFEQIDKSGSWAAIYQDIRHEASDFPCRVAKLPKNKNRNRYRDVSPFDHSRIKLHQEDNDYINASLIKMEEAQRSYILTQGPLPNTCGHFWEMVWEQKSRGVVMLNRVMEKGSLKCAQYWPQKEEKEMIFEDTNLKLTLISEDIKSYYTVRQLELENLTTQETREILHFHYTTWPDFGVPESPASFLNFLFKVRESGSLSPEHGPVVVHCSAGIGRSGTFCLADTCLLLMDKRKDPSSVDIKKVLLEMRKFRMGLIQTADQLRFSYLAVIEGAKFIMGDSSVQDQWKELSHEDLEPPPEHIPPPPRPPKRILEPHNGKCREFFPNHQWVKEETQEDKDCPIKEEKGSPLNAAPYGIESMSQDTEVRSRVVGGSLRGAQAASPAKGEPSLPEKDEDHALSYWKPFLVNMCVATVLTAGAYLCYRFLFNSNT
Method: as §1

[3] = target: T3, TCPTP (Homo sapiens, UniProt P17706); test: PTPs activity assay (DiFMUP); format: biochemical
T3 construct: His; made in house; host or cells: E. coli
T3 sequence (P17706 1-415): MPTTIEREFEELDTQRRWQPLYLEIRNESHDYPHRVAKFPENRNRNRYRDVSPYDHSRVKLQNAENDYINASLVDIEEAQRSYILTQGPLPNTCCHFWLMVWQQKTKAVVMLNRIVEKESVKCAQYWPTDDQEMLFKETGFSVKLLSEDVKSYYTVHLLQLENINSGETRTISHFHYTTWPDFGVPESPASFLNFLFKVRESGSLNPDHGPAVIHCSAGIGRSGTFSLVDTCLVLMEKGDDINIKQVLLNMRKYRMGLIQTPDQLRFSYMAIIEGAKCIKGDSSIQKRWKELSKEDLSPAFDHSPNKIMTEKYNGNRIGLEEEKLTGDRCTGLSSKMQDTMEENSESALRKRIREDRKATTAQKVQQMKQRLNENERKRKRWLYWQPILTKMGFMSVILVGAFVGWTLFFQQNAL
Method: as §1

[4] = target: T4, VHR (Homo sapiens, UniProt P51452); test: PTPs activity assay (DiFMUP); format: biochemical
T4 construct: His; made in house; host or cells: E. coli
Method: as §1

[5] = target: T5, ΔSHP1 (Homo sapiens, UniProt P29350); test: PTPs activity assay (DiFMUP); format: biochemical
T5 construct: His‐ΔSHP1, encompassing the peptide from amino acids 202–595 retaining PTP activity; His; made in house; host or cells: E. coli
Method: as §1

[6] = target: T6, ΔSHP2 (Homo sapiens, UniProt Q06124); test: PTPs activity assay (DiFMUP); format: biochemical
T6 construct: His‐ΔSHP2, encompassing the peptide from amino acids 205–593 retaining PTP activity; His; made in house; host or cells: E. coli
T6 sequence (Q06124 205-593): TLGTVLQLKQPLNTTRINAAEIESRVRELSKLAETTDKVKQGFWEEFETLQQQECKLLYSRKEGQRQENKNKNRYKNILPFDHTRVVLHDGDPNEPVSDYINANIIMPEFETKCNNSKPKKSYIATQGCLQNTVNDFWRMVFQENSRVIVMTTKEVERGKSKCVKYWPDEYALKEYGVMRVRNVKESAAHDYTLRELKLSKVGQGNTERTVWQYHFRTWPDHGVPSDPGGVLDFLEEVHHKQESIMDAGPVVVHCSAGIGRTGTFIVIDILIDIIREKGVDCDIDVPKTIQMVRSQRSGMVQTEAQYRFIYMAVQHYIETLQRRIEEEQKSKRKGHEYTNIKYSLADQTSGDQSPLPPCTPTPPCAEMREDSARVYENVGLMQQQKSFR
Method: as §1

[7] = test system: A549, NCI‐H2122, and NCI‐H1944 cells; test: Effect of candidate drugs on cell viability and colony formation; format: cell-based, human; conditions: 1, 10 and 50 μM viability; 10 µM colony formation
Method: supplies are listed in Supplementary Table S5. The relevant reagents for protein extraction from Escherichia coli are listed in Supplementary Table S6. Inhibitory effects of embelin on KRAS-mutant and wild-type cells are listed in Supplementary Table S7.
For the adherent cell viability assay, cells in the logarithmic growth phase were seeded in 96-well culture plates at a density of 5×103 well-1 and incubated overnight. Diluted compounds or DMSO were added, or specific treatments were incubated at 37 °C and 5% CO2 for 24 h or 48 h. Cell viability was determined using CCK-8 or CellLightTM Cell Viability Assay Kit, according to the manufacturer's protocol. The luminescence signals of the treated samples were normalized to those of the DMSO group.
For spherical cell viability assays, cells in the logarithmic growth phase were inoculated ata density of 4×10^3 well-1 into 96-well spherical cell microplates and incubated at 37 °C, 5% CO2 for 24 h or 48 h. Cell viability was measured using the CellTiter-Glo® Luminescent Cell Viability 3D Cell Viability Assay Kit, according to the manufacturer’s protocol. The remaining steps were the same as those described above.
Colony formation experiment […]
Finally, the staining results were recorded using an inverted microscope. […]

T4 sequence (P51452 whole entry): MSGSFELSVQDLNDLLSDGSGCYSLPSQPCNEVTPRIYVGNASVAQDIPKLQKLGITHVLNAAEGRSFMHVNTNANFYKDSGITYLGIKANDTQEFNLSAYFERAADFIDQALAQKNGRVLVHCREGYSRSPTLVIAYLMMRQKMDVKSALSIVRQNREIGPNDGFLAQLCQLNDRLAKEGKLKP
T5 sequence (P29350 202-595, stated change not applied): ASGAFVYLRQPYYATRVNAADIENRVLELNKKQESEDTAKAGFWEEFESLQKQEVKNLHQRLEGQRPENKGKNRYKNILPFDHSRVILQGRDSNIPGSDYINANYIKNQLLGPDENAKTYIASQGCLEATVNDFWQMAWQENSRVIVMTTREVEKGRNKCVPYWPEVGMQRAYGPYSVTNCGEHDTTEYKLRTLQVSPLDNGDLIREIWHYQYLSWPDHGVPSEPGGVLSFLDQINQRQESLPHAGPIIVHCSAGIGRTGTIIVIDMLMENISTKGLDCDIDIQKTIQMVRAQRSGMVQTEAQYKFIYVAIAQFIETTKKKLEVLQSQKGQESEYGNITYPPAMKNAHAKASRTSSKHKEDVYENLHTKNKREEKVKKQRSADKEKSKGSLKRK

- IC50 [1]: 202 µM
- IC50 [2]: 145 µM
- IC50 [3]: > 200 µM
- IC50 [4]: 242 µM
- IC50 [5]: > 200 µM
- IC50 [6]: 21.7 µM
SMILES: CC1=NN(c2ccc(C)c(C)c2)C(=O)/C1=N\Nc1cccc(-c2cccc(C(=O)O)c2)c1O [S2229, Eltrombopag Olamine]
- effect on proliferation of KRAS‐mutation cells [7]: inhibited the proliferation
